In patent EP4786454A1, “HETEROARYL DERIVATIVE AND USE THEREOF” (priority 2023, dated 2025):

Assays:
[1] = Plasma protein binding rate, equilibrium dialysis (mouse plasma); format: in vitro ADME, CD-1 mice; settings: m (CD-1 mouse plasma), dialysis 4 hours at 37 °C, read-out: Unbound PPB%
Protocol: (§1) The protein binding rates of the compounds in the plasma of CD-1 mice, Sprague-Dawley rats, beagle dogs, cynomolgus monkeys, and human were determined using equilibrium dialysis method.
(§2) Commercially available plasma, dual-layer dialysis membrane, and equilibrium dialysis device.
(§3) The dual-layer dialysis membrane was soaked in ultrapure water for about 1 hour, removed and then divided into two parts. It was then soaked in an ethanol:water (20:80, v:v) solution for 20 minutes or placed at 2 to 8 °C, and it was valid for 1 month. Before starting the assay, the dialysis membrane was rinsed twice with ultrapure water and then soaked in ultrapure water for another 20 minutes for later use.
(§4) On the day of assay, the frozen plasma of CD-1 mice, Sprague-Dawley rats, beagle dogs, cynomolgus monkeys, and human was thawed in running cold tap water. After the plasma was completely thawed, the plasma was centrifuged at 3220×g for 5 minutes, and the suspended substances and precipitates in it were removed. The pH of the plasma was determined. The plasma with a pH in the range of 7.4 ± 0.1 was directly used, or the plasma with a pH in the range of 7.4 ± 0.1 after an adjustment with 1% phosphoric acid or 1M sodium hydroxide was used.
(§5) Preparation process of plasma samples: 597 µL of blank plasma from each of the above five species was taken, respectively. 3 µL of a compound or warfarin working solution was added, and the mixture was mixed thoroughly to give a plasma sample with a compound concentration of 2 µM and a warfarin concentration of 2 µM (n=1). The concentration of the organic phase DMSO was 0.5%. The sample was thoroughly mixed before proceeding to the next step.
(§6) Preparation process of T0 samples: 50 µL of a plasma sample containing the compound and warfarin was transferred to a sample receiving plate (n=3), and 50 µL of blank PBS was immediately added. Then, 500 µL of stop solution was added to the T0 sample of the compound and warfarin, and the mixture was stored at 2 to 8 °C, waiting to be processed later together with other dialysis-processed samples.
(§7) Dialysis process of plasma samples: 100 µL of a compound (2 µM) and warfarin (2 µM) plasma sample was added to the donor of each dialysis well (n=3), and 100 µL of blank PBS was added to the corresponding receiver of the dialysis well. The dialysis plate was placed in a 5% CO2 incubator, and incubated at 37 °C with shaking at approximately 100 rpm for 4 hours.
(§8) After the dialysis was completed, 50 µL of dialysis-processed PBS sample and dialysis-processed plasma sample (n=3) were transferred to a new 96-well plate (sample receiving plate). The corresponding volume of the corresponding blank plasma or PBS was added to the sample to make the final volume of each sample well 100 µL, with a plasma to PBS volume ratio of 1:1. All the samples were analyzed by LC-MS/MS after protein precipitation.
(§9) The formulas for calculating the unbound fraction (%Unbound), bound fraction (%Bound) and recovery fraction (%Recovery) of a compound are as follows: %Unbound = 100 ×F / T %Bound = 100 - %Unbound %Recovery = 100 ×(F + T)/ T0 wherein F is the concentration of the compound at the receiver of dialysis; T is the concentration of the compound at the supply end of dialysis; and T0 is the concentration of the compound in the plasma at time zero.

[2] = Stability in liver microsomes (monkey); format: in vitro ADME, cynomolgus monkeys; settings: c (cynomolgus monkey liver microsomes), 0.5 mg/mL, read-out: MMS Clint
Protocol: The purpose of this study was to evaluate the phase I metabolic stability of the assay sample in liver microsomes from CD-1 mice, Sprague-Dawley (SD) rats, beagle dogs, cynomolgus monkeys, and human.
The animal and human liver microsomes used in this assay system were purchased from Xenotech, Corning, or other qualified suppliers.
Preparation of buffer: 73.21 g of potassium phosphate dibasic trihydrate and 10.78 g of potassium dihydrogen phosphate were dissolved in 4000 mL of ultrapure water. The pH of the solution was adjusted to the range of 7.40 ± 0.10 using 10.0% phosphoric acid or 1.00 M potassium hydroxide. Its final concentration was 100 mM.
Preparation of working solutions: An assay sample powder was prepared into a 10.0 mM stock solution with DMSO, and then further diluted with a suitable organic solvent. The control compounds testosterone, diclofenac, and propafenone were prepared into 10.0 mM stock solutions using DMSO, and then further diluted with a suitable organic solvent.
Preparation of liver microsome solution: Microsomes of various species were diluted with 100 mM potassium phosphate buffer to a working solution of 0.56 mg/mL. The final concentration of microsomes in the reaction system was 0.500 mg/mL. Detailed preparation procedures were described in the experimental records.
Preparation of reduced nicotinamide adenine dinucleotide phosphate (NADPH) solution: An appropriate amount of reduced nicotinamide adenine dinucleotide phosphate was dissolved in magnesium chloride solution, and the mixture was shaken to mix well. The final concentrations in the reaction system were 1.00 mM NADPH and 1.00 mM magnesium chloride, respectively. Detailed preparation procedures were described in the experimental records.
Preparation of stop solution: The stop solution was prepared using acetonitrile containing internal standards (tolbutamide and labetalol). The prepared stop solution was stored at 2.0 to 8.0 °C in a refrigerator. Detailed preparation procedures were described in the experimental records. […]

[3] = Plasma protein binding rate, equilibrium dialysis (human plasma); format: in vitro ADME; settings: dialysis 4 hours at 37 °C, read-out: Unbound PPB%
Protocol: as §1, §2, §3, §4, §5, §6, §7, §8, §9

Row | SMILES | fraction unbound at 4 h, 2 µM [1] | CLint scaled at 1 µM [2] [mL/min/kg] | fraction unbound at 4 h, 2 µM [3]
1 | CC(C)(C)CC(=O)Nc1nc2c(F)cc(C#N)cn2c1C1=CCCC1 [Compound 3] | 0.087 | 129 | 0.109
2 | CC(C)(C)CC(=O)Nc1nc2c(F)cc(C#N)cn2c1-c1ccc(OC(F)(F)F)cc1 [Compound 1] | 0.047 | 130 | 0.051
3 | CC(C)(C)CC(=O)Nc1nc2c(F)cc(C#N)cn2c1C12CC(C1)C2 [Compound 5] | 0.141 | 15.3 | 0.231
